Laboratory results as given in US4789587A, “(1,3-dioxolan-2-yl-methyl)-1H-imidazoles as bactericidal and/or fungicidal agents” (IRE-Celltarg, S.A., priority 1986, dated 1988).
In brackets after ≈: the same amount, converted by molar mass. Where two headings read alike, the source gives them in different places.

Tests used:
Format in all cases: cell-based
[1] = test system: Leydig tumor cells from mice (I-10, ATCC No. CCL83); test: in vitro synthesis of steroids: 20α-hydroxy-4-pregnen-3-one secretion by Leydig tumor cells induced by cAMP; settings: for 20α-OH-4-pregnen-3-one (1): dibutyryl-cAMP 1×10^-4 M, 3 hours incubation with compound, control 1744, basal 785; for activity at 0.94 µM: Mus musculus, Leydig, read-out: 20α-OH-4-pregnen-3-one (2) % enzyme activity relative to control
Description: (§1) Ketoconazole and its derivatives reduce the plasma levels of testosterone by inhibiting certain enzymes involved in its biogenesis. Progesterone is a key intermediate in the biogenesis of steroid hormones as it leads especially to estradiol in the ovary and to testosterone in the testicles. The inhibiting power of ketoconazole and its derivatives on the enzyme chain for the biogenesis of steroid hormones may be assessed by measuring the conversion of cholesterol into progesterone. A method of determination which enables this property to be quantified is described below.
(§2) Leydig tumor cells from mice (I-10, ATCC No. CCL83) were grown in a HAM's F10 medium to which 15% of horse serum and 2.5% of foetal calf serum were added. These cells have the property of secreting progesterone and a product of reduction of the latter which is no longer metabolized, 20α-hydroxy-4-pregnen-3-one. This secretion of steroids is induced by the addition of cAMP in the form of its dibutyryl ester (N^6, O^2' -dibutyryladenosine 3', 5'-cyclic monophosphate sodium salt monohydrate (Sigma)). The cells are subcultured in 25 cm^2 falcon dishes and maintained under CO2 (10%). When these become confluent (±1 mg/ml proteins) the medium is replaced with fresh medium containing dibutyryl-cAMP (1×10^-4 M). After incubating for 1 hour with the cAMP, the ketoconazole or its derivatives are added (9.4×10^-7 M) to the culture medium. After incubating for a further period of 3 hours, the supernatants are collected and will be used for the analysis of steroids by HPLC. The cells are rinsed with PBS (phosphate buffered saline: NaCl 0.15M, KCl 2.7 mM, Na2 HPO4 -KH2 PO4 3 mM pH 7.4) and after treating with DOC (deoxycholic acid), the determination of proteins is carried out by the Lowry method.
(§3) For the determination of steroids, 2 ml of the culture medium are brought into contact with 5 ml of ether. The tubes are vortexed for 2 minutes. After freezing the aqueous phases in an isopropanol/solid carbon dioxide bath, the ether phase is collected and the ether is evaporated off under a stream of nitrogen at 30° C. The dry extract is then diluted in 150 μl of water and 150 μl of acetonitrile and centrifuged at 13,000 rpm for 10 minutes. 30 μl of the supernatant are injected into HPLC on a 4 mm diameter, 30 cm long μBondapack C18 column (WATERS). The mobile phase consists of 38% of water, 31% acetonitrile and 31% methanol. The flowrate is 2 ml/min and readings are taken at 245 nm.

[2] = test system: Staphylococcus aureus ATCC 25923; test: minimum inhibiting concentration, microtitration in liquid medium, S. aureus
Method: (§4) The activity of the new derivatives according to the invention was tested in vitro by determining the minimum inhibiting concentration (MIC) of the molecules and their fungicidal (minimum fungicidal concentration MFC) or bactericidal (minimum bactericidal concentration MBC) activity. MFC and MBC are defined as the minimum dose which kills 99.9% of the organisms contained in the inoculum. Two species of yeasts pathogenic to man were used: Candida albicans ATCCe 10231 and Candida tropicalis ATCC 13803. Two species of bacteria were included in the screening: Staphylococcus aureus ATCC 25923 and Salmonella typhimurium LT2, strain Demerec. The MIC is determined after culturing overnight in a liquid medium, by the microtitration method in dishes containing 96 wells over a concentration range of 100 μM to 0.0008 μM. The inoculum contains 10^5 to 10^6 organisms/ml. The culture media consist on the one hand of RPMI to which 20% of foetal calf serum (inactivated for one hour at 56°) has been added in order to determine the fungistatic activity and Mueller-Hinton agar in order to determine the bacteriostatic power of the newly synthesized molecules on the other. The MFC and MBC for each of these molecules are obtained by subculturing a sample containing 10^3 organisms from each well giving negative results for the growth of the organisms, in a solid medium consisting of YM agar (yeasts) or Mueller-Hinton agar (bacteria) overnight at 37°.

[3] = test system: Candida albicans ATCCe 10231; test: minimum fungicidal concentration, subculture on YM agar, C. albicans
Method: as §4

[4] = test system: Salmonella typhimurium LT2, strain Demerec; test: minimum inhibiting concentration, microtitration in liquid medium, S. typhimurium; settings: Salmonella enterica, read-out: MIC S. typhimurium
Method: as §4

[5] = test system: Staphylococcus aureus ATCC 25923; test: minimum bactericidal concentration, subculture on Mueller-Hinton agar, S. aureus
Method: as §4

[6] = test system: Candida tropicalis ATCC 13803; test: minimum fungicidal concentration, subculture on YM agar, C. tropicalis
Method: as §4

[7] = test system: Leydig tumor cells from mice (I-10, ATCC No. CCL83); test: in vitro synthesis of steroids: progesterone secretion by Leydig tumor cells induced by cAMP; settings: for Progesterone (1): dibutyryl-cAMP 1×10^-4 M, 3 hours incubation with compound, control 3546, basal 554; for progesterone secretion, % of cAMP-induced control at 0.94 µM: Mus musculus, Leydig, read-out: Progesterone (2) % enzyme activity relative to control
Description: as §1, §2, §3

[8] = test system: Salmonella typhimurium LT2, strain Demerec; test: minimum bactericidal concentration, subculture on Mueller-Hinton agar, S. typhimurium; settings: Salmonella enterica, minimum dose which kills 99.9% of the organisms (MBC), overnight at 37°, read-out: MFC S. typhimurium
Method: as §4, with “The MFC and MBC for each of these molecules are obtained by subculturing a sample containing 10^3 organisms from each well giving negative results for the growth of the organisms, in a solid medium consisting of YM agar (yeasts) or Mueller-Hinton agar (bacteria) overnight at 37°.” left out

[9] = test system: Candida tropicalis ATCC 13803; test: minimum inhibiting concentration, microtitration in liquid medium, C. tropicalis; settings: ATCC13803, RPMI + 20% foetal calf serum, overnight, inoculum 10^5 to 10^6 organisms/ml
Method: as §4

[10] = test system: Candida albicans ATCCe 10231; test: minimum inhibiting concentration, microtitration in liquid medium, C. albicans; settings: ATCCE10231, RPMI + 20% foetal calf serum, overnight, inoculum 10^5 to 10^6 organisms/ml
Method: as §4

[11] = ATCC25923, read-out: MIC S. aureus
[12] = 9.4×10^-7 M, relative to cells induced by cAMP in the absence of inhibitor
[13] = ATCC25923, Mueller-Hinton, overnight, inoculum 10^5 to 10^6 organisms/ml, read-out: MIC S. aureus
[14] = ATCCE10231, minimum dose which kills 99.9% of the organisms, YM agar, overnight at 37°, read-out: MFC C. albicans
[15] = ATCC25923, minimum dose which kills 99.9% of the organisms (MBC), overnight at 37°, read-out: MFC S. aureus
[16] = ATCC13803, minimum dose which kills 99.9% of the organisms, YM agar, overnight at 37°, read-out: MFC C. tropicalis

MIC [2, 13] [µM]	MIC [9] [µM]	MIC [10] [µM]	Structure (SMILES)	20α-OH-4-pregnen-3-one (1) ([1]; 9.4×10^-7 M)	MIC [2, 11] [µM]	Progesterone (1) ([7]; 9.4×10^-7 M)	activity at 0.94 µM [1, 12] [%]	MFC [3, 14] [µM]	MBC [5, 15] [µM]	MFC [6, 16] [µM]	progesterone secretion, % of cAMP-induced control at 0.94 µM [7, 12] [%]	also measured
12 (≈ 6.55 µg/mL)	0.119	0.16	NCC(=O)N1CCN(c2ccc(OCC3COC(Cn4ccnc4)(c4ccc(Cl)cc4Cl)O3)cc2)CC1 (stereo not drawn) [No. 1, Cis-4-[A]-1-(glycyl)piperazine]					2.38 (≈ 1.3 µg/mL)	25 (≈ 13.7 µg/mL)	1.3 (≈ 0.71 µg/mL)		
	0.006	0.006	CC(N)C(=O)N1CCN(c2ccc(OCC3COC(Cn4ccnc4)(c4ccc(Cl)cc4Cl)O3)cc2)CC1 (stereo not drawn) [No. 2, Cis-4-[A]-1-(alanyl)piperazine]	1299 ng of steroids/mg of cell prot		1939 ng of steroids/mg of cell prot	74				55	
	0.48	0.48	NCC(=O)NCC(=O)N1CCN(c2ccc(OCC3COC(Cn4ccnc4)(c4ccc(Cl)cc4Cl)O3)cc2)CC1 (stereo not drawn) [No. 3, Cis-4-[A]-1-(N-glycylglycyl)piperazine]									

More lines, now with the values behind:

Structure (SMILES)	MIC [2, 13] [µM]	MIC [9] [µM]	MIC [10] [µM]	20α-OH-4-pregnen-3-one (1) ([1]; 9.4×10^-7 M)	MIC [2, 11] [µM]	Progesterone (1) ([7]; 9.4×10^-7 M)	activity at 0.94 µM [1, 12] [%]	MFC [3, 14] [µM]	MBC [5, 15] [µM]	MFC [6, 16] [µM]	progesterone secretion, % of cAMP-induced control at 0.94 µM [7, 12] [%]	also measured
Clc1ccc(C2(Cn3ccnc3)OCC(COc3ccc(N4CCNCC4)cc3)O2)c(Cl)c1 (stereo not drawn) [Cis-1-[A]-piperazine, reference compound]				1461 ng of steroids/mg of cell prot	3.65 (≈ 1.79 µg/mL)	2783 ng of steroids/mg of cell prot						activity at 0.94 µM [1]: 84%; MFC ([3]; ATCCE10231, read-out: MFC C. albicans): 2.35 µM (≈ 1.15 µg/mL); MIC [4]: > 100 µM; MBC ([5]; ATCC25923, read-out: MFC S. aureus, minimum dose which kills 99.9% of the organisms (MBC), overnight at 37°): 25 µM (≈ 12.2 µg/mL); MFC ([6]; ATCC13803, read-out: MFC C. tropicalis): 1.58 µM (≈ 0.773 µg/mL); progesterone secretion, % of cAMP-induced control at 0.94 µM [7]: 78%
CC(=O)N1CCN(c2ccc(OCC3COC(Cn4ccnc4)(c4ccc(Cl)cc4Cl)O3)cc2)CC1 (stereo not drawn) [Ketoconazole, reference compound]	20.4 (≈ 10.9 µg/mL)	0.049	0.053	1296 ng of steroids/mg of cell prot		1878 ng of steroids/mg of cell prot	74	0.22 (≈ 0.117 µg/mL)	50 (≈ 26.6 µg/mL)	4.88 (≈ 2.59 µg/mL)	53	MBC [8]: > 100 µM; MIC ([4]; Mueller-Hinton, overnight, inoculum 10^5 to 10^6 organisms/ml): > 100 µM
Clc1ccc(COC(Cn2ccnc2)c2ccc(Cl)cc2Cl)c(Cl)c1 (stereo not drawn) [Miconazole, reference compound]					1.56 (≈ 0.649 µg/mL)							
